Test results from publication PMC10105399 (European Journal of Medicinal Chemistry, 2023).

Experiments:
alpha-chymotrypsin = format: biochemical, human; settings: read-out: IC50 Chymo-trypsin
MERS-CoV 3CLpro = MERS-CoV 3CLpro (Middle East respiratory syndrome-related coronavirus, UniProt K9N7C7); format: biochemical
SARS-CoV-2 3CLpro = SARS-CoV-2 3CLpro (Severe acute respiratory syndrome coronavirus 2, UniProt P0DTD1); format: biochemical

Chain of MERS-CoV 3CLpro (K9N7C7 3248-3553 limits assumed): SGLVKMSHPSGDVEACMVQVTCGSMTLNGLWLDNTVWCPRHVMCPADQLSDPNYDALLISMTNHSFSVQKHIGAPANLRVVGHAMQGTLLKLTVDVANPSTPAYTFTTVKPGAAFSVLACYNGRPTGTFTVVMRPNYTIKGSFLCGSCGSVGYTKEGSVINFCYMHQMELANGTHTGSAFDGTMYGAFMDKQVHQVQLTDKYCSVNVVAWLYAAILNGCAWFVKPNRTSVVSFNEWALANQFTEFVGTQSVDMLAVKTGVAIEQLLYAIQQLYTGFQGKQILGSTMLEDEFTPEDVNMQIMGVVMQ

Row | Structure (SMILES) | IC50 (alpha-chymotrypsin) | other results
1 | CC(C)C[C@H](NC(=O)OCC(C)(C)Sc1ccccc1)C(=O)N[C@H](C=O)C[C@@H]1CCNC1=O [1c, 2-Methyl-2-(phenylthio)propyl ((S)-4-methyl-1-oxo-1-(((S)-1-oxo-3-((S)-2-oxopyrrolidin-3-yl)propan-2-yl)amino)pentan-2-yl)carbamate] | > 50 µM | fold higher potency than 8c against MERS-CoV 3CLpro (MERS-CoV 3CLpro): ~2 fold; fold higher potency than 8c against SARS-CoV-2 3CLpro (SARS-CoV-2 3CLpro): 4.6 fold
2 | CC(C)C[C@H](NC(=O)OCC(C)(C)Sc1ccccc1)C(=O)N[C@@H](C[C@@H]1CCNC1=O)C(=O)C(=O)NC1CC1 [1e, 2-Methyl-2-(phenylthio)propyl ((S)-1-(((S)-4-(cyclopropylamino)-3,4-dioxo-1-((S)-2-oxopyrrolidin-3-yl)butan-2-yl)amino)-4-methyl-1-oxopentan-2-yl)carbamate] | > 50 µM | –
3 | CC(C)C[C@H](NC(=O)OCC(C)(C)Sc1ccccc1)C(=O)N[C@H](C#N)C[C@@H]1CCNC1=O [1g, 2-Methyl-2-(phenylthio)propyl ((S)-1-(((S)-1-cyano-2-((S)-2-oxopyrrolidin-3-yl)ethyl)amino)-4-methyl-1-oxopentan-2-yl)carbamate] | > 50 µM | –
4 | [2H]C([2H])(OC(=O)N[C@@H](CC(C)C)C(=O)N[C@H](C=O)C[C@@H]1CCNC1=O)C(C)(C)Sc1ccccc1 [2c, 2-Methyl-2-(phenylthio)propyl-1,1-d2 ((S)-4-methyl-1-oxo-1-(((S)-1-oxo-3-((S)-2-oxopyrrolidin-3-yl)propan-2-yl)amino)pentan-2-yl)carbamate] | > 50 µM | –
5 | CC(C)C[C@H](NC(=O)OCC(C)(C)Sc1cccc(Cl)c1)C(=O)N[C@H](C=O)C[C@@H]1CCNC1=O [7c, 2-((3-Chlorophenyl)thio)-2-methylpropyl ((S)-4-methyl-1-oxo-1-(((S)-1-oxo-3-((S)-2-oxopyrrolidin-3-yl)propan-2-yl)amino)pentan-2-yl)carbamate] | > 50 µM | –
6 | CC(C)C[C@H](NC(=O)OCC(C)(C)Sc1nc2ccccc2[nH]1)C(=O)N[C@H](C=O)C[C@@H]1CCNC1=O [9c, 2-((1H-benzo[d]imidazole-2-yl)thio)-2-methylpropyl ((S)-4-methyl-1-oxo-1-(((S)-1-oxo-3-((S)-2-oxopyrrolidin-3-yl)propan-2-yl)amino)pentan-2-yl)carbamate] | – | fold reduction in potency relative to 1c against MERS-CoV 3CLpro (MERS-CoV 3CLpro): 1.5 fold; fold less active than 1c against SARS-CoV-2 3CLpro (SARS-CoV-2 3CLpro): more than 4 fold
7 | CC(C)C[C@H](NC(=O)OCC(C)(C)Oc1ccccc1)C(=O)N[C@H](C=O)C[C@@H]1CCNC1=O [10c, 2-Methyl-2-phenoxypropyl ((S)-4-methyl-1-oxo-1-(((S)-1-oxo-3-((S)-2-oxopyrrolidin-3-yl)propan-2-yl)amino)pentan-2-yl)carbamate] | – | fold more potent than 1c against MERS-CoV 3CLpro (MERS-CoV 3CLpro): 2 fold; fold less active than 1c against SARS-CoV-2 3CLpro (SARS-CoV-2 3CLpro): more than 4 fold
8 | [2H]C([2H])(OC(=O)N[C@@H](CC(C)C)C(=O)N[C@H](C=O)C[C@@H]1CCNC1=O)C(C)(C)Oc1ccc(Cl)cc1 [12c, 2-(4-Chlorophenoxy)-2-methylpropyl-1,1-d2 ((S)-4-methyl-1-oxo-1-(((S)-1-oxo-3-((S)-2-oxopyrrolidin-3-yl)propan-2-yl)amino)pentan-2-yl)carbamate] | > 50 µM | –
9 | CC(C)C[C@H](NC(=O)OCC(C)(C)Oc1cccc(Cl)c1)C(=O)N[C@H](C=O)C[C@@H]1CCNC1=O [13c, 2-(3-Chlorophenoxy)-2-methylpropyl ((S)-4-methyl-1-oxo-1-(((S)-1-oxo-3-((S)-2-oxopyrrolidin-3-yl)propan-2-yl)amino)pentan-2-yl)carbamate] | > 50 µM | –
10 | CC(C)C[C@H](NC(=O)OCC(C)(C)Oc1ccc(F)cc1)C(=O)N[C@H](C=O)C[C@@H]1CCNC1=O [15c, 2-(4-Fluorophenoxy)-2-methylpropyl ((S)-4-methyl-1-oxo-1-(((S)-1-oxo-3-((S)-2-oxopyrrolidin-3-yl)propan-2-yl)amino)pentan-2-yl)carbamate] | > 50 µM | –
